Blank lines part the entries; values can stand above or below the compound they belong to. Calls of active or inactive are those of the source.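 The calls were made as follows: active = EC50, the half-effect concentration on GFP expression, at most 33 µM; inactive = the rest.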
How the values were obtained:
[1] = TOR pathway RPL19A-GFP reporter modulators – cell-based, KU SAR set 2, kMESF flow cytometry, multiplex, SAR follow-up (AID 504470); conditions: S. cerevisiae RPL19A-GFP strain, flow cytometry fluorescence, 3 h
[2] = tested on: S. cerevisiae RPL19A-GFP strain, flow cytometry fluorescence, 3 h; experiment: as above

Structure (SMILES): CNc1nc(NC)c([N+](=O)[O-])c(Nc2cccc(Cl)c2)n1
- GFP fluorescence (kMESF) ([1]; at 100 µM (top of the series)): 23.3% (inactive)

Structure (SMILES): COC(=O)c1cccc(-c2cc(Nc3cc(C)[nH]n3)nc(NCc3ccccc3)n2)c1
- GFP fluorescence (kMESF) ([1]; at 300 µM (top of the series)): 32.9% (inactive)

Structure (SMILES): CNc1nc(N)c([N+](=O)[O-])c(Nc2ccccc2Br)n1
- GFP fluorescence (kMESF) ([1]; at 100 µM (top of the series)): 23.4% (inactive)

- EC50 [2]: 69.1 µM (inactive)
Structure (SMILES): CNc1nc(N)cc(Nc2cccc(Cl)c2)n1

Structure (SMILES): CNc1nc(N)cc(Oc2cccc(Cl)c2)n1
- GFP fluorescence (kMESF) ([1]; at 300 µM (top of the series)): 32.2% (inactive)

Structure (SMILES): Cc1cc(Nc2cc(-c3ccccc3)nc(NCc3ccccc3)n2)n[nH]1
- GFP fluorescence (kMESF) ([1]; at 300 µM (top of the series)): 31.4% (inactive)

Structure (SMILES): CNc1nc(N)cc(Nc2ccccc2F)n1
- GFP fluorescence (kMESF) ([1]; at 300 µM (top of the series)): 32% (inactive)

- EC50 [2]: 125 µM (inactive)
Structure (SMILES): CNc1nc(N)c(C(=O)c2ccc(C)c(C)c2)c(Nc2cccc(Cl)c2)n1

Structure (SMILES): CCOC(=O)c1c(N)nc(NC)nc1Nc1cccc(F)c1
- GFP fluorescence (kMESF) ([1]; at 300 µM (top of the series)): 29.8% (inactive)

- EC50 [2]: 70.5 µM (inactive)
Structure (SMILES): CCNc1nc(NC2CCCCC2)c([N+](=O)[O-])c(N2CCOCC2)n1

Structure (SMILES): Cc1cc(Nc2cc(Nc3ccccc3)nc(NCc3ccccc3)n2)n[nH]1
- GFP fluorescence (kMESF) ([1]; at 300 µM (top of the series)): 30% (inactive)

Structure (SMILES): CNc1nc(N)c([N+](=O)[O-])c(Nc2cccc(OC)c2)n1
- GFP fluorescence (kMESF) ([1]; at 100 µM (top of the series)): 22.9% (inactive)

Structure (SMILES): O=[N+]([O-])c1c(NC2CCCCC2)nc(NCc2ccccc2)nc1N1CCOCC1
- GFP fluorescence (kMESF) ([1]; at 300 µM (top of the series)): 29.5% (inactive)

Structure (SMILES): CNc1nc(N)c([N+](=O)[O-])c(Nc2cccc(Br)c2)n1
- GFP fluorescence (kMESF) ([1]; at 100 µM (top of the series)): 24% (inactive)

Structure (SMILES): COc1ccccc1-c1cc(Nc2cc(C)[nH]n2)nc(NCc2ccccc2)n1
- GFP fluorescence (kMESF) ([1]; at 300 µM (top of the series)): 30% (inactive)

Structure (SMILES): CNc1nc(NC2CCCCC2)c([N+](=O)[O-])c(N2CCOCC2)n1
- GFP fluorescence (kMESF) ([1]; at 100 µM (top of the series)): 21.9% (inactive)

Structure (SMILES): CCNc1nc(N)c([N+](=O)[O-])c(Nc2cccc(Cl)c2)n1
- GFP fluorescence (kMESF) ([1]; at 100 µM (top of the series)): 18.9% (inactive)

Structure (SMILES): COc1cccc(-c2cc(Nc3cc(C)[nH]n3)nc(NCc3ccccc3)n2)c1
- GFP fluorescence (kMESF) ([1]; at 300 µM (top of the series)): 32.4% (inactive)

Structure (SMILES): CNc1nc(N)c([N+](=O)[O-])c(Nc2cccc(Oc3ccccc3)c2)n1
- GFP fluorescence (kMESF) ([1]; at 100 µM (top of the series)): 23% (inactive)

Structure (SMILES): CNc1nc(N)c([N+](=O)[O-])c(Nc2ccccc2F)n1
- GFP fluorescence (kMESF) ([1]; at 100 µM (top of the series)): 24.8% (inactive)

Source: PubChem BioAssay AID504470 (NMMLSC, 2011)
